In PubChem BioAssay (NCI):
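Values below derive from 48-hour exposures of cells grown in 96-well plates, with endpoints linearly interpolated between the two concentrations bracketing the appropriate inhibition level. Definition used: TGI = concentration required for complete inhibition of growth.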

Columns and labels:
Experiment in all cases: inhibition of tumour cell growth, NCI panel, 48 h
786-0 renal = tested on: 786-0 renal
A498 renal = tested on: A498 renal
HCC-2998 colon = tested on: HCC-2998 colon
HCT-15 colon = tested on: HCT-15 colon
LOX IMVI melanoma = tested on: LOX IMVI melanoma
M14 melanoma = tested on: M14 melanoma
MALME-3M melanoma = tested on: MALME-3M melanoma
NCI-H226 lung = tested on: NCI-H226 lung
OVCAR-5 ovarian = tested on: OVCAR-5 ovarian
TK-10 renal = tested on: TK-10 renal

Measured: TGI

CC(C)(C)N/N=C(\C(=O)Nc1nc(=S)[nH][nH]1)C1C(=O)Nc2ccccc2S1=O (stereo not given)
> 100 µM: 786-0 renal | A498 renal | HCC-2998 colon | HCT-15 colon | LOX IMVI melanoma | M14 melanoma | MALME-3M melanoma | NCI-H226 lung | OVCAR-5 ovarian | TK-10 renal
